Test results from ChEMBL document CHEMBL6177980 (J Med Chem, 2025).
Converted amounts (≈) assume the structure as drawn.

Columns and labels:
[1] = Aqueous solubility of compound; type: physicochemical; settings: aqueous medium
[2] = Stability of compound at pH 4.0 assessed as change in purity at 1 mg/ml incubated for 4 hrs by HPLC analysis; type: physicochemical; settings: buffer, pH 4, 4 h
[3] = AUC (0 to t) in fasted Sprague-Dawley rat at 21 mg/kg, po by LC-MS/MS analysis; type: ADME, organism-based; settings: in vivo
[4] = Oral bioavailability in fasted Cynomolgus monkey administered orally by LC-MS/MS analysis; type: ADME, organism-based, Macaca fascicularis; settings: in vivo
[5] = Stability of compound at pH 6.8 assessed as change in purity at 1 mg/ml incubated for 12 hrs by HPLC analysis; type: physicochemical; settings: buffer, pH 6.8, 12 h
[6] = Stability of compound at pH 4.0 assessed as change in purity at 1 mg/ml incubated for 24 hrs by HPLC analysis; type: physicochemical; settings: buffer, pH 4, 24 h
[7] = Stability of compound at pH 1.5 assessed as change in purity at 1 mg/ml incubated for 24 hrs by HPLC analysis; type: physicochemical; settings: buffer, pH 1.5, 24 h
[8] = Stability of compound at pH 1.5 assessed as change in purity at 1 mg/ml incubated for 4 hrs by HPLC analysis; type: physicochemical; settings: buffer, pH 1.5, 4 h
[9] = Stability of compound at pH 1.5 assessed as change in purity at 1 mg/ml incubated for 12 hrs by HPLC analysis; type: physicochemical; settings: buffer, pH 1.5, 12 h
[10] = Stability of compound at pH 6.8 assessed as change in purity at 1 mg/ml incubated for 24 hrs by HPLC analysis; type: physicochemical; settings: buffer, pH 6.8, 24 h
[11] = Cmax in fasted Sprague-Dawley rat at 21 mg/kg, po by LC-MS/MS analysis; type: ADME, organism-based; settings: in vivo
[12] = Stability of compound at pH 6.8 assessed as change in purity at 1 mg/ml incubated for 4 hrs by HPLC analysis; type: physicochemical; settings: buffer, pH 6.8, 4 h
[13] = Stability of compound at pH 4.0 assessed as change in purity at 1 mg/ml incubated for 12 hrs by HPLC analysis; type: physicochemical; settings: buffer, pH 4, 12 h
[14] = Cmax in fasted Sprague-Dawley rat at 16.5 mg/kg, po by LC-MS/MS analysis; type: ADME, organism-based; settings: in vivo
[15] = AUC (0 to t) in fasted Sprague-Dawley rat at 16.5 mg/kg, po by LC-MS/MS analysis; type: ADME, organism-based; settings: in vivo
[16] = Cmax in fasted Sprague-Dawley rat at 24 mg/kg, po by LC-MS/MS analysis; type: ADME, organism-based; settings: in vivo
[17] = AUC (0 to t) in fasted Sprague-Dawley rat at 24 mg/kg, po by LC-MS/MS analysis; type: ADME, organism-based; settings: in vivo
[18] = AUC (0 to t) in fasted Sprague-Dawley rat at 19 mg/kg, po by LC-MS/MS analysis; type: ADME, organism-based; settings: in vivo
[19] = Cmax in fasted Sprague-Dawley rat at 19 mg/kg, po by LC-MS/MS analysis; type: ADME, organism-based; settings: in vivo
[20] = Cmax in fasted Sprague-Dawley rat at 15.5 mg/kg, po by LC-MS/MS analysis; type: ADME, organism-based; settings: in vivo
[21] = AUC (0 to t) in fasted Sprague-Dawley rat at 15.5 mg/kg, po by LC-MS/MS analysis; type: ADME, organism-based; settings: in vivo
[22] = Cmax in fasted Sprague-Dawley rat at 20 mg/kg, po by LC-MS/MS analysis; type: ADME, organism-based; settings: in vivo
[23] = AUC (0 to t) in fasted Sprague-Dawley rat at 20 mg/kg, po by LC-MS/MS analysis; type: ADME, organism-based; settings: in vivo

CC(=O)O[C@H]1[C@H](n2ccc(=O)n(COC(=O)c3cccnc3)c2=O)O[C@](F)(COC(=O)C(C)C)[C@H]1OC(C)=O
solubility [1]: 410 µg/mL (≈ 743 µM) | Activity [2]: -0.1% | AUC(0-t) [3]: 13500 ng·h/mL | bioavailability [4]: 86.4% | Activity [5]: -16.4% | Activity [6]: -0.2% | Activity [7]: -10.4% | Activity [8]: -2% | Activity [9]: -5.6% | Activity [10]: -31% | Cmax [11]: 2190 ng/mL | Activity [12]: -6.7% | Activity [13]: -0.1%

CCOC(=O)OCn1c(=O)ccn([C@@H]2O[C@](F)(COC(=O)C(C)C)[C@@H](O)[C@H]2O)c1=O
Cmax [14]: 2440 ng/mL | AUC(0-t) [15]: 15800 ng·h/mL

CC(C)C(=O)OC[C@@]1(F)O[C@@H](n2ccc(=O)n(COC(=O)[C@@H]3CCCN3)c2=O)[C@H](OC(=O)C(C)C)[C@@H]1OC(=O)C(C)C.Cl
Activity [2]: -35.2% | Activity [5]: -30.5% | Activity [6]: -84.8% | Activity [7]: -7.9% | Activity [8]: -1.3% | Cmax [16]: 1370 ng/mL | Activity [9]: -4.1% | Activity [10]: -30.6% | AUC(0-t) [17]: 7590 ng·h/mL | Activity [12]: -27.6% | Activity [13]: -62.4%

CC(C)C(=O)O[C@H]1[C@H](n2ccc(=O)n(COC(=O)c3cccnc3)c2=O)O[C@](F)(COC(=O)c2cccnc2)[C@H]1OC(=O)C(C)C
Activity [2]: -0.6% | bioavailability [4]: 102% | Activity [5]: -8.1% | Activity [6]: -0.8% | Activity [7]: -7.8% | Activity [8]: -2.8% | Activity [9]: -4.8% | Activity [10]: -15.9% | Activity [12]: -3.4% | Activity [13]: -0.8%

CC(C)C(=O)OC[C@@]1(F)O[C@@H](n2ccc(=O)n(COC(=O)c3cccnc3)c2=O)[C@@H]2OC(=O)O[C@@H]21
Activity [2]: -1.9% | Activity [5]: -76% | Activity [6]: -10.5% | Activity [7]: -9.5% | Activity [8]: -2.1% | Activity [9]: -5.5% | Activity [10]: -88.3% | AUC(0-t) [18]: 9450 ng·h/mL | Cmax [19]: 1200 ng/mL | Activity [12]: -45% | Activity [13]: -5.4%

CC(C)C(=O)OCn1c(=O)ccn([C@@H]2O[C@](F)(COC(=O)C(C)C)[C@@H](OC(=O)C(C)C)[C@H]2OC(=O)C(C)C)c1=O
Activity [2]: 0% | Activity [5]: -0.4% | Activity [6]: 0% | Activity [7]: -10.8% | Activity [8]: -1.5% | Activity [9]: -3.7% | Activity [10]: -1.8% | Activity [12]: 0% | Activity [13]: 0%

CCOC(=O)n1c(=O)ccn([C@@H]2O[C@](F)(COC(=O)C(C)C)[C@@H](O)[C@H]2O)c1=O
Cmax [20]: 569 ng/mL | AUC(0-t) [21]: 4650 ng·h/mL

CC(=O)OC[C@@]1(F)O[C@@H](n2ccc(=O)n(COC(=O)c3cccnc3)c2=O)[C@H](OC(C)=O)[C@@H]1OC(C)=O
solubility [1]: 700 µg/mL (≈ 1340 µM) | Activity [2]: 0% | Cmax [22]: 3120 ng/mL | bioavailability [4]: 100% | Activity [5]: -4.3% | Activity [6]: -0.1% | Activity [7]: -15.7% | Activity [8]: -3% | Activity [9]: -8.5% | Activity [10]: -8.6% | Activity [12]: -1.6% | Activity [13]: -0.1% | AUC(0-t) [23]: 15700 ng·h/mL
